The target in this assay is T1, APJ Receptor (Homo sapiens, UniProt P35414).
T1 sequence (P35414 1-380): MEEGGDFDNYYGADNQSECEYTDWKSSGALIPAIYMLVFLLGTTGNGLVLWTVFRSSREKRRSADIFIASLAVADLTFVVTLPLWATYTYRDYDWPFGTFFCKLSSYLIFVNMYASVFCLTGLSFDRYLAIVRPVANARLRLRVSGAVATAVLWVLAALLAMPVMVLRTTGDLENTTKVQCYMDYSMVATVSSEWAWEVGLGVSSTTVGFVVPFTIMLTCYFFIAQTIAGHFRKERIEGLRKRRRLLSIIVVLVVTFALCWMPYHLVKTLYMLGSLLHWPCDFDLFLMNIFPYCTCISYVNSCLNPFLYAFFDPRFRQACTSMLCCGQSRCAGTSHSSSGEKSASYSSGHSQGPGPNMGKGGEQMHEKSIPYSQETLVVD
Put plainly: APJ cAMP assay: inhibition of forskolin-stimulated cAMP, enzyme fragment complementation, in CHO-K1 cells stably expressing the APJ Receptor. As to conditions: CHO-K1 cell line (DiscoverX) stably expressing APJ Receptor; EC80 forskolin; 30 minutes at 37° C.; read-out: APJ cAMP EC50 Potency range. The assay is classed as cell-based. An excerpt: Activation of APJ receptor is known to inhibit forskolin-stimulated cyclic AMP (cAMP) production in cells in a pertussis toxin-sensitive manner which indicates primary coupling to the GαI subunit of the G protein heterotrimeric complex. In addition to signaling through G protein and inhibition of cAMP, APJ receptor activation also results in β-arrestin recruitment, receptor internalization and activation of extracellular-regulated kinases (ERKs).
In order to optimize functional activity directed toward Gi coupling we utilized a CHO-K1 cell line developed by DiscoverX stably expressing the APJ Receptor. Cells expressing APJR receptor were plated in a 384-well microtiter plates and incubated overnight at 37° C. with 5% CO2 to allow the cells to attach and grow. Media was then aspirated from the cells and replaced with 15 uL 2:1 Hanks Balanced Salt Solution (HBSS)/10 mM Hepes. cAMP XS+ Ab reagent. Five microliters (5 uL) of previously generated compound sample stocks at 4× final concentration in assay buffer containing 4×EC80 forskolin were then added to the cells and allowed to incubate at 37° C. for 30 minutes.
After incubation the assay signal was generated using a technology termed enzyme fragment complementation (EFC). In EFC the enzyme B-galactosidase is split into two complementary portions (EA and ED). The fragment ED is fused to cAMP and in the assay format competes with endogenous cAMP for binding to a cAMP specific antibody. Activated B-Gal is formed when exogenous EA fragment binds to free ED-cAMP (not bound to cAMP specific antibody). Activated enzyme levels are detected through conversion of B-gal chemiluminescent substrate which generates a detectable luminescence signal and read on standard microtiter plate.
The methodology for detection of cAMP using EFC requires incubation with 20 uL of cAMP XS+ ED/CL lysis cocktail for one hour followed by incubation with 20 uL cAMP XS+ EA reagent for three hours at room temperature. Microplates were read following signal generation with a PerkinElmer Envision instrument utilizing chemiluminescent signal detection.
Compound activity was analyzed using CBIS data analysis suite (ChemInnovation, CA).
Percentage activity was calculated using the following formula: % Activity=[…]×(1−(mean RLU of test sample−mean RLU of Max control)/(mean RLU of vehicle control−mean RLU of Max control))
The biological activity of the exemplified compounds of this invention determined by the assay described above is shown in Table 1. The APJ cAMP EC50 potency ranges are as follows: A: EC50<1 nM; B: 1≤EC50<100 nM; and C: 100≤EC50<10,000 nM.
Background: Cyclic AMP is a second messenger, typically raised through Gs and lowered through Gi signalling.

As a reminder, the EC50 is the concentration needed to bring the measured effect to its halfway point.

Consider `COc1cccc(-c2nnc(C(=O)NS(=O)(=O)[C@@H](C)c3ccccc3)n2-c2c(OC)cccc2OC)n1` (single isomer, unassigned) [Example 32], for which the EC50 was 1 to 100 nM.

Consider `COc1cccc(-c2nnc(C(=O)NS(=O)(=O)[C@H](C)c3ccccc3)n2-c2c(OC)cccc2OC)n1` (single isomer, unassigned) [Example 33], for which the EC50 is 1 to 100 nM.

Regarding `CCOc1cccc(-c2nnc(C(=O)NS(=O)(=O)[C@@H](C)c3ccccc3)n2-c2c(OC)cccc2OC)n1` (single isomer, unassigned) [Example 39], the EC50 is < 1 nM.

Turning to `CCOc1cccc(-c2nnc(C(=O)NS(=O)(=O)[C@H](C)c3ccccc3)n2-c2c(OC)cccc2OC)n1` (single isomer, unassigned) [Example 40], the EC50 was < 1 nM.

On to `CCOc1cccc(-c2nnc(C(=O)NS(=O)(=O)C[C@@H](C)c3ccccc3)n2-c2c(OC)cccc2OC)n1` (single isomer, unassigned) [Example 45], for which the EC50 is < 1 nM.

As for `CCOc1cccc(-c2nnc(C(=O)NS(=O)(=O)C[C@H](C)c3ccccc3)n2-c2c(OC)cccc2OC)n1` (single isomer, unassigned) [Example 46], the EC50 was < 1 nM.

For `CCOc1cccc(-c2nnc(C(=O)NS(=O)(=O)[C@H]3CCc4ccccc4C3)n2-c2c(OC)cccc2OC)n1` (single isomer, unassigned) [Example 47], the EC50 was < 1 nM.

In the case of `CCOc1cccc(-c2nnc(C(=O)NS(=O)(=O)[C@@H]3CCc4ccccc4C3)n2-c2c(OC)cccc2OC)n1` (single isomer, unassigned) [Example 48], the EC50 is < 1 nM.

Take `CCOc1cccc(-c2nnc(C(=O)NS(=O)(=O)c3ccccc3)n2-c2c(OC)cccc2OC)n1` [Example 1, 4-(2,6-dimethoxyphenyl)-5-(6-ethoxypyridin-2-yl)-N-(phenylsulfonyl)-4H-1,2,4-triazole-3-carboxamide]: the EC50 is < 1 nM.

For the compound `CCOc1cccc(-c2nnc(C(=O)NS(=O)(=O)Cc3ccccc3)n2-c2c(OC)cccc2OC)n1` [Example 2, N-(benzylsulfonyl)-4-(2,6-dimethoxyphenyl)-5-(6-ethoxypyridin-2-yl)-4H-1,2,4-triazole-3-carboxamide], the EC50 is < 1 nM.

`CCOc1cccc(-c2nnc(C(=O)NS(=O)(=O)CCc3ccccc3)n2-c2c(OC)cccc2OC)n1` [Example 3, 4-(2,6-dimethoxyphenyl)-5-(6-ethoxypyridin-2-yl)-N-(phenethylsulfonyl)-4H-1,2,4-triazole-3-carboxamide]: the EC50 was < 1 nM.

Regarding `COc1cccc(OC)c1-n1c(C(=O)NS(=O)(=O)Cc2ccccc2)nnc1-c1ccn(C)n1` [Example 4, N-(benzylsulfonyl)-4-(2,6-dimethoxyphenyl)-5-(1-methyl-1H-pyrazol-3-yl)-4H-1,2,4-triazole-3-carboxamide], the EC50 was in the range of 1 to 100 nM.

As for `CCn1ccc(-c2nnc(C(=O)NS(=O)(=O)Cc3ccccc3)n2-c2c(OC)cccc2OC)n1` [Example 5, N-(benzylsulfonyl)-4-(2,6-dimethoxyphenyl)-5-(1-ethyl-1H-pyrazol-3-yl)-4H-1,2,4-triazole-3-carboxamide], the EC50 was 1 to 100 nM.

For the compound `COc1nc(-c2nnc(C(=O)NS(=O)(=O)Cc3ccccc3)n2-c2c(OC)cccc2OC)cs1` [Example 6, N-(benzylsulfonyl)-4-(2,6-dimethoxyphenyl)-5-(2-methoxythiazol-4-yl)-4H-1,2,4-triazole-3-carboxamide], the EC50 is 1 to 100 nM.

Turning to `CCOCc1nnc(C(=O)NS(=O)(=O)Cc2ccccc2)n1-c1c(OC)cccc1OC` [Example 7, N-(benzylsulfonyl)-4-(2,6-dimethoxyphenyl)-5-(ethoxymethyl)-4H-1,2,4-triazole-3-carboxamide], the EC50 lay in the range of 100 to 10000 nM.

As to `CCOc1cccc(-c2nnc(C(=O)N(C)S(=O)(=O)Cc3ccccc3)n2-c2c(OC)cccc2OC)n1` [Example 8, N-(benzylsulfonyl)-4-(2,6-dimethoxyphenyl)-5-(6-ethoxypyridin-2-yl)-N-methyl-4H-1,2,4-triazole-3-carboxamide], the EC50 lay within 1 to 100 nM.

Take `CCOc1cccc(-c2nnc(C(=O)NS(C)(=O)=O)n2-c2c(OC)cccc2OC)n1` [Example 9, 4-(2,6-Dimethoxyphenyl)-5-(6-ethoxypyridin-2-yl)-N-(methylsulfonyl)-4H-1,2,4-triazole-3-carboxamide]: the EC50 lay within 1 to 100 nM.

For `COc1ccn(-c2nnc(C(=O)NS(=O)(=O)Cc3ccccc3)n2-c2c(OC)cccc2OC)n1` [Example 10, N-(enzylsulfonyl)-4-(2,6-dimethoxyphenyl)-5-(3-methoxy-1H-pyrazol-1-yl)-4H-1,2,4-triazole-3-carboxamide], the EC50 was 100 to 10000 nM.

Regarding `COc1cccc(OC)c1-n1c(C(=O)NS(=O)(=O)Cc2ccccc2)nnc1-c1cc(C2CC2)no1` [Example 11, N-(benzylsulfonyl)-5-(3-cyclopropylisoxazol-5-yl)-4-(2,6-dimethoxyphenyl)-4H-1,2,4-triazole-3-carboxamide], the EC50 lay in the range of 100 to 10000 nM.

On to `COc1cccc(OC)c1-n1c(C(=O)NS(=O)(=O)Cc2ccccc2)nnc1-c1ncc(C)c(OC)n1` [Example 12, N-(benzylsulfonyl)-4-(2,6-dimethoxyphenyl)-5-(4-methoxy-5-methylpyrimidin-2-yl)-4H-1,2,4-triazole-3-carboxamide], for which the EC50 lay within 100 to 10000 nM.

On to `COc1cccc(-c2nnc(C(=O)NS(=O)(=O)Cc3ccccc3)n2-c2c(OC)cccc2OC)n1` [Example 13, N-(benzylsulfonyl)-4-(2,6-dimethoxyphenyl)-5-(6-methoxypyridin-2-yl)-4H-1,2,4-triazole-3-carboxamide], for which the EC50 lay in the range of 1 to 100 nM.

`COc1cccc(OC)c1-n1c(C(=O)NS(=O)(=O)Cc2ccccc2)nnc1-c1cccc(C)n1` [Example 14, N-(benzylsulfonyl)-4-(2,6-dimethoxyphenyl)-5-(6-methylpyridin-2-yl)-4H-1,2,4-triazole-3-carboxamide]: the EC50 was in the range of 1 to 100 nM.

On to `COc1cccc(OC)c1-n1c(C(=O)NS(=O)(=O)Cc2ccccc2)nnc1-c1ccc(C)cn1` [Example 15, N-(benzylsulfonyl)-4-(2,6-dimethoxyphenyl)-5-(5-methylpyridin-2-yl)-4H-1,2,4-triazole-3-carboxamide], for which the EC50 fell in the range of 1 to 100 nM.

Take `COc1cccc(OC)c1-n1c(C(=O)NS(=O)(=O)Cc2ccccc2)nnc1-c1ccc(C)o1` [Example 16, N-(benzylsulfonyl)-4-(2,6-dimethoxyphenyl)-5-(5-methylfuran-2-yl)-4H-1,2,4-triazole-3-carboxamide]: the EC50 is 1 to 100 nM.

As for `COc1cccc(OC)c1-n1c(C(=O)NS(=O)(=O)Cc2ncccn2)nnc1-c1ccc(C)o1` [Example 17, 4-(2,6-Dimethoxyphenyl)-5-(5-methylfuran-2-yl)-N-((pyrimidin-2-ylmethyl)sulfonyl)-4H-1,2,4-triazole-3-carboxamide], the EC50 was < 1 nM.

`COc1cccc(OC)c1-n1c(C(=O)NS(=O)(=O)Cc2ccccc2)nnc1-c1cccc(OC2CCC2)n1` [Example 18, N-(benzylsulfonyl)-5-(6-cyclobutoxypyridin-2-yl)-4-(2,6-dimethoxyphenyl)-4H-1,2,4-triazole-3-carboxamide]: the EC50 is 1 to 100 nM.

Turning to `COc1cccc(OC)c1-n1c(C(=O)NS(=O)(=O)Cc2ccccc2)nnc1-c1cccc(OC2CC2)n1` [Example 19, N-(benzylsulfonyl)-5-(6-cyclopropoxypyridin-2-yl)-4-(2,6-dimethoxyphenyl)-4H-1,2,4-triazole-3-carboxamide], the EC50 was < 1 nM.

For the compound `COc1cccc(OC)c1-n1c(C(=O)NS(=O)(=O)Cc2ncccn2)nnc1-c1cccc(OC2CC2)n1` [Example 20, 5-(6-Cyclopropoxypyridin-2-yl)-4-(2,6-dimethoxyphenyl)-N-((pyrimidin-2-ylmethyl)sulfonyl)-4H-1,2,4-triazole-3-carboxamide], the EC50 was < 1 nM.

Values taken from US11724997B2, “Compounds and compositions for treating conditions associated with APJ receptor activity” (Annapurna Bio, Inc., priority 2018, dated 2023).
